Values after ≈ are worked out from the molar mass of the structure shown. Counter-ions that a name gives are not always drawn. Like-named read-outs stand apart in the source and are kept apart here.
Key:
[1] = Blood levels and half-life of BL-P2024 after oral administration to mice (Table 5); format: in vivo; conditions: 100 mg/kg oral
B. thetaiotaomicron = experiment: Anti-Bacteroides activity, MIC by agar dilution (Table 2); format: cell-based; conditions: A22279, beta-lactamase +
Method: *Minimum inhibitory concentration (MIC) determined by the agar dilution
method using 50X dilutions of 24 hour cultures as inocula dispensed by th
Steer's inoculator. Assay medium composed of Brucella Agar plus 5% laked
sheep blood and 10 mcg/ml vitamin K.

Bacteroides species = experiment: as above; format: cell-based
in vivo [2] = conditions: mouse, po
From the text: Compounds were solubilized in propylene glycol, except for the Hetacillin

[3] = mouse, in vivo, po, 50 mg/kg
in vivo [4] = conditions: mouse, po, 50 mg/kg; for concentration at 0.5 h / concentration at 1 h / concentration at 2 h: Blood Level
[5] = man, oral; cited from earlier work
E. coli A9675 = experiment: Therapeutic efficacy of BL-P2043, BL-P2044 and components, oral, infected mice (Table 13); format: in vivo; conditions: Escherichia coli, po; E. coli A9675, p.o.; pro-drugs and mixtures 50:38; read-out: PD50/Treatment
β-lactamase enzyme RTEM = conditions: cited from earlier work
E. coli = experiment: Therapeutic efficacy as mutual pro-drugs or mixtures, oral, infected mice (Table 12); format: in vivo; conditions: Escherichia coli, pro-drugs and their mixtures 50:38, read-out: PD50/Treatment
Method: (§1) ^a Treatment schedule: Mice were infected i.p. with about 5 ×
(§2) 10^6 organisms of E. coli in 4% mucin and 1 × 10^9 of S.
(§3) aureus in 2% mucin. Drugs were administered p.o. at 0 and 2 hour
(§4) ^b Mutual ProDrugs: BLP2048 (hetacillin: BLP2013) and BLP2049
(§5) (hetaamoxicillin: BLP2013) as well as their respective mixtures were
(§6) administered in a 50:38 ratio. PD50 values are averages of 2 to 3
(§7) tests for E. coli and 1 to 2 tests for S. aureus.
(§8) averages of 1 to 2 tests for E. coli and a single test for S. aureus.

S. aureus = experiment: as above; format: in vivo; conditions: Staphylococcus aureus, pro-drugs and their mixtures 50:38, read-out: PD50/Treatment
Method: as §1, §2, §3, §4, §5, §6, §7, §8

C. freundii = experiment: Antibacterial activity of ceforanide alone and with BL-P2013, MIC (Table 11); format: cell-based; conditions: Citrobacter freundii
From the text: (§9) ^a Geometric mean value where applicable.

Citrobacter sp. = experiment: as above; format: cell-based
From the text: as §9

E. aerogenes = experiment: as above; format: cell-based
From the text: as §9

E. cloacae = experiment: as above; format: cell-based; conditions: Enterobacter cloacae
From the text: as §9

M. morganii = experiment: as above; format: cell-based; conditions: Morganella morganii, geometric mean
From the text: as §9

P. aeruginosa = experiment: as above; format: cell-based; conditions: Pseudomonas aeruginosa
From the text: as §9

P. mirabilis = experiment: as above; format: cell-based; conditions: Proteus mirabilis
From the text: as §9

P. rettgeri = experiment: as above; format: cell-based; conditions: Providencia rettgeri
From the text: as §9

P. stuartii = experiment: as above; format: cell-based; conditions: Providencia stuartii
From the text: as §9

P. vulgaris = experiment: as above; format: cell-based; conditions: Proteus vulgaris
From the text: as §9

S. faecalis = experiment: as above; format: cell-based; conditions: Enterococcus faecalis
From the text: as §9

S. marcescens = experiment: as above; format: cell-based
From the text: as §9

[6] = tested on: β-lactamase-producing strains; conditions: in vitro and in vivo; cited from earlier work

## CC(C)(C)C(=O)OCOC(=O)C1N2C(=O)CC2S(=O)(=O)C1(C)CCl (stereo not drawn) [BL-P2024, Pivaloyloxymethyl 2β-Chloromethyl-2α-methylpenam-3α-carboxylate Sulfone]
[1]; 15 min
  Blood Level: 12300 ng/mL
[1]; 30 min
  Blood Level: 12200 ng/mL
[1]; 60 min
  Blood Level: 9400 ng/mL
[1]; 120 min
  Blood Level: 5700 ng/mL

## CC1(C)S[C@@H]2[C@H](NC(=O)[C@H](N)c3ccc(O)cc3)C(=O)N2[C@H]1C(=O)O [Amoxicillin, reference compound]
B. thetaiotaomicron
  MIC: 16 µg/mL
Bacteroides species; A20929, beta-lactamase +
  MIC: 16 µg/mL
Bacteroides species; A20931, beta-lactamase +
  MIC: 16 µg/mL
Bacteroides species; A21954, beta-lactamase +
  MIC: 16 µg/mL
In vivo [2]; 50 mg/kg
  AUC: 9500 ng·h/mL
  concentration at 0.5 h: 7000 ng/mL
  concentration at 1 h: 5000 ng/mL
  concentration at 2 h: 2200 ng/mL
[3]; 0.5 h
  Blood Level: 7000 ng/mL
[3]; 1 h
  Blood Level: 5000 ng/mL
[3]; 2 h
  Blood Level: 2200 ng/mL
In vivo [4]
  AUC: 15400 ng·h/mL
  concentration at 0.5 h: 11000 ng/mL
  concentration at 1 h: 9000 ng/mL
  concentration at 2 h: 3100 ng/mL

## CC1(C)S[C@@H]2[C@H](N=CN3CCCCCC3)C(=O)N2[C@H]1C(=O)OCOC(=O)[C@@H]1N2C(=O)C[C@H]2S(=O)(=O)C1(C)C [ester 4]
[5]
  absorption from the gastro-intestinal tract: excellently absorbed from the gastro-intestinal tract
  blood and tissue levels of antibiotic and β-lactamase inhibitor: high blood and tissue levels of antibiotic and β-lactamase inhibitor in a balanced ratio
  hydrolysis after absorption: hydrolyzed with simultaneous liberation of the active components

## CC1(C)S[C@@H]2[C@H](NC(=O)[C@H](N)c3ccccc3)C(=O)N2[C@H]1C(=O)O [Ampicillin, reference compound]
In vivo [2]; 50 mg/kg
  AUC: 6200 ng·h/mL
  concentration at 0.5 h: 4000 ng/mL
  concentration at 1 h: 3300 ng/mL
  concentration at 2 h: 1700 ng/mL
E. coli A9675
  ED50: > 400 mg/kg
[3]; 0.5 h
  Blood Level: 3200 ng/mL
[3]; 1 h
  Blood Level: 2600 ng/mL
In vivo [4]
  AUC: 6200 ng·h/mL
  concentration at 0.5 h: 4000 ng/mL
  concentration at 1 h: 3300 ng/mL
  concentration at 2 h: 1700 ng/mL

## CC1(C)[C@H](C(=O)O)N2C(=O)[C@@H](Br)[C@H]2S1(=O)=O [(2S,5R,6S)-6β-Bromo-3,3-dimethyl-7-oxo-4-thia-1-azabicyclo[3.2.0]heptane-2-carboxylic acid, S,S-dioxide]
β-lactamase enzyme RTEM
  inhibition of β-lactamase: inhibit the action of the β-lactamase enzyme RTEM

## CC1(C)SC2C(N3C(=O)C(c4ccccc4)NC3(C)C)C(=O)N2C1C(=O)OCOC(=O)C1N2C(=O)CC2S(=O)(=O)C1(C)CCl [BL-P2048, 2β-Chloromethyl-2α-methyl-1,1-dioxopenam-3-carbonyloxymethyl 6-(D-2,2-dimethyl-5-oxo-4-phenyl-1-imidazolidinyl)penicillanate Hydrochloride]
In vivo [2]; 38 mg/kg, 15 min
  Blood Level: 10000 ng/mL
In vivo [2]; 38 mg/kg, 120 min
  Blood Level: 900 ng/mL
In vivo [2]; 38 mg/kg, 150 min
  Blood Level: 600 ng/mL
In vivo [2]; 50 mg/kg, 15 min
  Blood Level: 8000 ng/mL
E. coli; E. coli A20649, p.o.
  ED50: 89 mg/kg
E. coli; E. coli A21223, p.o.
  ED50: 32 mg/kg
E. coli; E. coli A-9675, p.o.
  ED50: 49 mg/kg
S. aureus; S. aureus A20379, p.o.
  ED50: 400 mg/kg
S. aureus; S. aureus A-9606, p.o.
  ED50: 274 mg/kg

## NCc1ccccc1CC(=O)N[C@@H]1C(=O)N2C(C(=O)O)=C(CSc3nnnn3CC(=O)O)CS[C@H]12 [Ceforanide]
C. freundii
  MIC: > 125 µg/mL
Citrobacter sp.
  MIC: > 125 µg/mL
E. aerogenes; 5 strains, geometric mean
  MIC: > 125 µg/mL
E. aerogenes; Klebsiella aerogenes
  MIC: > 125 µg/mL
E. aerogenes; Klebsiella aerogenes, 4 strains, geometric mean, read-out: MIC
  MIC: 3.4 µg/mL (≈ 6.54 µM)
E. cloacae; 1 strain (first line)
  MIC: 22.6 µg/mL (≈ 43.5 µM)
E. cloacae; 1 strain (third line)
  MIC: > 125 µg/mL
E. cloacae; 14 strains, geometric mean
  MIC: > 125 µg/mL
M. morganii; 8 strains (second line)
  MIC: > 125 µg/mL
M. morganii; 8 strains (first line), read-out: MIC
  MIC: 65 µg/mL (≈ 125 µM)
P. aeruginosa
  MIC: 125 µg/mL (≈ 241 µM)
P. mirabilis; 1 strain
  MIC: 0.25 µg/mL (≈ 0.481 µM)
P. mirabilis; 3 strains, geometric mean
  MIC: 25.4 µg/mL (≈ 48.9 µM)
P. rettgeri; 1 strain (first line)
  MIC: 0.06 µg/mL (≈ 0.115 µM)
P. rettgeri; 1 strain (second line)
  MIC: 16 µg/mL (≈ 30.8 µM)
P. stuartii; 1 strain
  MIC: 0.35 µg/mL (≈ 0.674 µM)
P. stuartii; 4 strains, geometric mean
  MIC: 45 µg/mL (≈ 86.6 µM)
P. vulgaris
  MIC: > 125 µg/mL
P. vulgaris; 1 strain, read-out: MIC
  MIC: 0.5 µg/mL (≈ 0.962 µM)
P. vulgaris; 9 strains, geometric mean, read-out: MIC
  MIC: 85 µg/mL (≈ 164 µM)
S. faecalis
  MIC: > 125 µg/mL
S. marcescens; 6 strains, geometric mean
  MIC: 125 µg/mL (≈ 241 µM)
S. marcescens; Serratia marcescens
  MIC: 125 µg/mL (≈ 241 µM)

## CC1(C)SC2C(NC(=O)C(N)c3ccccc3)C(=O)N2C1C(=O)OCOC(=O)C1N2C(=O)CC2S(=O)(=O)C1(C)CCl [BL-P2043, 6-[(R)-2-Amino-2-phenylacetamido]-3,3-dimethyl-7-oxo-4-thia-1-azabicyclo[3.2.0]heptane-2-carbonyloxymethyl 2β-chloromethyl-2-α-methylpenam-3α-carboxylate sulfone]
E. coli A9675
  ED50: 44 mg/kg

## CC1(C)S[C@@H]2[C@H](NC(=O)[C@H](N)c3ccccc3)C(=O)N2[C@H]1C(=O)OCOC(=O)[C@@H]1N2C(=O)C[C@H]2S(=O)(=O)C1(C)C [ester 3]
[5]
  absorption from the gastro-intestinal tract: excellently absorbed from the gastro-intestinal tract
  blood and tissue levels of antibiotic and β-lactamase inhibitor: high blood and tissue levels of antibiotic and β-lactamase inhibitor in a balanced ratio
  hydrolysis after absorption: hydrolyzed with simultaneous liberation of the active components

## CC1(C)SC2C(NC(=O)C(N)c3ccc(O)cc3)C(=O)N2C1C(=O)OCOC(=O)C1N2C(=O)CC2S(=O)(=O)C1(C)CCl (single isomer, unassigned) [BL-P2044, Hydrochloride]
E. coli A9675
  ED50: 25 mg/kg

## CC1(C)SC2C(N3C(=O)C(c4ccc(O)cc4)NC3(C)C)C(=O)N2C1C(=O)OCOC(=O)C1N2C(=O)CC2S(=O)(=O)C1(C)CCl [BL-P2049, 2β-Chloromethyl-2α-methyl-1,1-dioxopenam-3-carbonyloxymethyl 6-[D-2,2-dimethyl-5-oxo-4-(4-hydroxyphenyl)-1-imidazolidinyl]-penicillanate Hydrochloride]
In vivo [2]; 38 mg/kg, 15 min
  Blood Level: 4100 ng/mL
In vivo [2]; 38 mg/kg, 30 min
  Blood Level: 4600 ng/mL
In vivo [2]; 38 mg/kg, 60 min
  Blood Level: 3100 ng/mL
In vivo [2]; 38 mg/kg, 90 min
  Blood Level: 2200 ng/mL
In vivo [2]; 38 mg/kg, 120 min
  Blood Level: 1600 ng/mL
In vivo [2]; 38 mg/kg, 150 min
  Blood Level: 1200 ng/mL
In vivo [2]; 50 mg/kg, 15 min
  Blood Level: 3700 ng/mL
In vivo [2]; 50 mg/kg, 30 min
  Blood Level: 4700 ng/mL
In vivo [2]; 50 mg/kg, 60 min
  Blood Level: 4700 ng/mL
In vivo [2]; 50 mg/kg, 90 min
  Blood Level: 4100 ng/mL
In vivo [2]; 50 mg/kg, 120 min
  Blood Level: 3700 ng/mL
In vivo [2]; 50 mg/kg, 150 min
  Blood Level: 3300 ng/mL
E. coli; E. coli A20649, p.o.
  ED50: 43 mg/kg
E. coli; E. coli A21223, p.o.
  ED50: 32 mg/kg
E. coli; E. coli A-9675, p.o.
  ED50: 28 mg/kg
S. aureus; S. aureus A20379, p.o.
  ED50: > 400 mg/kg
S. aureus; S. aureus A-9606, p.o.
  ED50: > 374 mg/kg

## CC1(C)[C@H](C(=O)O)N2C(=O)C[C@H]2S1(=O)=O [CP-45899]
[6]
  potentiation of ampicillin: potentiates the in vitro and in vivo activities of ampicillin versus β-lactamase-producing strains
